Results: US12295929B2, “Intravenous baclofen formulations and treatment methods” (Allaysis, LLC, priority 2015, dated 2025)

Key:
[1] = Randomized, open-label, 2-way crossover pharmacokinetics and bioavailability study of oral vs intravenous baclofen; type: in vivo, human; settings: for Cmax: healthy human volunteers; for Cmax / AUC: plasma; for Cmax / AUC0-∞/Dose / AUC: mean ± SD; for AUC: human
Method: Twelve healthy human volunteers were recruited. The volunteers were medication free for 48 hours before, during, and 24 hours after the administration of the study drug.
The 12 volunteers participated in a randomized, open-label, 2-way crossover study to compare the pharmacokinetics and bioavailability of oral baclofen with an intravenous baclofen formulation. The oral formulation was a 10 mg baclofen tablet. A single intravenous dose of 5 mg was administered over 15 minutes, using the commercially available 2 mg/mL intrathecal baclofen formulation (Lioresal Intrathecal). Blood samples (6 mL) for the measurement of plasma concentrations of baclofen were collected in blood collection tubes containing K2 ethylenediaminetetraacetic acid at the following times: prior to dosing; at 5, 15, and 30 minutes; and at 1, 2, 4, 6, 8, 10, 12, and 24 hours after drug administration.
Study plasma samples were prepared by adding 50 μL of a 500 μg/mL levetiracetam solution (internal standard) to 250 μL of K2 ethylenediaminetetraacetic acid (EDTA) human plasma. Baclofen and the internal standard were extracted from plasma by precipitating the protein with methanol and drying it under nitrogen at approximately 40° C. The dried residues were reconstituted in 300 μL of a mobile phase consisting of 20 mM ammonium acetate—methanol (75:25) solution. After 1 minute of vortex mixing, the reconstituted sample solution was filtered and injected onto the high-performance liquid chromatograph-mass spectrometer system. Standard curve samples over a range of 20 to 400 ng/mL baclofen and quality control samples containing 30 (low), 80 (medium), and 240 ng/mL (high) baclofen were prepared and analyzed in triplicate along with the study samples. The assay was linear over the range 20-400 ng/mL with a lower limit of quantification of 20 ng/mL.
Baclofen concentration—time data were analyzed using a noncompartmental pharmacokinetic approach with Phoenix software (version 6.2; Pharsight Corporation, Mountain View, CA). The terminal rate constant (λz) was determined from the slope of the terminal log-linear portion of the plasma concentration—time curve, and the terminal half-life (t1/2) was calculated as ln 2/(λz). Maximum plasma concentrations (Cmax) and time to maximum concentration (Tmax) were determined by direct observation of the data. The area under the concentration-time curve to the last nonzero plasma concentration (Clast) that was above half the lower limit of quantification (10 ng/mL) was calculated by the trapezoidal rule and reported as AUClast. The area under the concentration-time curve extrapolated to infinity (AUC0-∞) was calculated as AUClast+(Clast/λz). Mean and standard deviation values for the parameters were also obtained using the descriptive statistics tool in Phoenix version 6.2. A paired t-test was used to determine if statistical differences existed in log normalized, dose-adjusted area under the curve between oral and intravenous arms.

[2] = cited from earlier work

time point of observed maximum baclofen concentration ([1]; 5 mg IV over 15 minutes): 5 min
Cmax ([1]; 5 mg IV over 15 minutes): 313 ng/mL
AUC0-∞/Dose ([1]; 5 mg IV): 141 ± 33 ng·h/mL/mg
Cmax ([1]; 10 mg oral tablet): 176 ng/mL
Tmax ([1]; 10 mg oral tablet, median (min, max)): 1 h
AUC0-∞/Dose ([1]; 10 mg oral): 102 ± 23 ng·h/mL/mg
AUC ([1]; 5 mg IV): 593 ± 111 ng·h/mL
AUC ([1]; 10 mg oral): 878 ± 199 ng·h/mL
Structure (SMILES): NCC(CC(=O)O)c1ccc(Cl)cc1 (racemic) [Baclofen, 4-amino-3-(4-chlorophenyl) butanoic acid]
solubility in water [2]: slightly soluble
